This note sets out measurements from patent US11021481B2, “Substituted isoindolin-1-ones and 2,3-dihydro-1h-pyrrolo[3,4-c]pyridin-1-ones as HPK1 antagonists” (Nimbus Saturn, Inc., priority 2019, dated 2021).

pIC50: −log10 of the molar value. Counter-ions that a name gives are not always drawn. Where only a bound is given, the exact number is not on record here.

Sequence of HPK1 (Q92918 whole entry): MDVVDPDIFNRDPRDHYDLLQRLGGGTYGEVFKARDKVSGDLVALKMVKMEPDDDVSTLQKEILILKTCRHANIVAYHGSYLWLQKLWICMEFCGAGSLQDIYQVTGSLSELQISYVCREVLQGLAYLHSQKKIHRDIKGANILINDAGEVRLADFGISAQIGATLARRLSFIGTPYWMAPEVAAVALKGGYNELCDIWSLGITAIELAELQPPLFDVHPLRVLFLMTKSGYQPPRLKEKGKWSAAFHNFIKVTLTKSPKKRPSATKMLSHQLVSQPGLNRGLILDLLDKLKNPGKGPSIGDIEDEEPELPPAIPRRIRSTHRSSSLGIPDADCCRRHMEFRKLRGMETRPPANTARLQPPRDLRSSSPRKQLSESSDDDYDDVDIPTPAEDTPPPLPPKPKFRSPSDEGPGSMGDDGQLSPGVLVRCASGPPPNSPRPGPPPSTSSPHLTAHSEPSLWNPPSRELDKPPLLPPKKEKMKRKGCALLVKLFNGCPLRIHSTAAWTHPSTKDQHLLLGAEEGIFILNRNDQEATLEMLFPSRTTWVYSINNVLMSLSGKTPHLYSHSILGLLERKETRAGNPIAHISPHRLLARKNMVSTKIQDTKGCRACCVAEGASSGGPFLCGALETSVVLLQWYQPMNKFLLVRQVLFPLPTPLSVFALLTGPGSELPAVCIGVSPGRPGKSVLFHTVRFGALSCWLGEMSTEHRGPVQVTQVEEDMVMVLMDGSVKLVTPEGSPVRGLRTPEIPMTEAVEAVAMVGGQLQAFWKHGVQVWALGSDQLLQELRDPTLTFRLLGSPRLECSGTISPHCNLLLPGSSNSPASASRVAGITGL

This test has as its target HPK1 (Homo sapiens (Human), UniProt Q92918). Put plainly: HPK1 biochemical enzyme assay (microfluidic mobility shift assay). The conditions noted are these: 1.5 nM HPK1, ATP 1 mM final, 30 min preincubation, 60 min at RT, Caliper EZ Reader; read-out: HPK1 1000UMATP caliper IC50. On the procedure:
HPK1 biochemical enzyme assay: HPK1 enzyme inhibition was measured using a microfluidic mobility shift assay. […] Test compounds were titrated in ten point curves (top final assay concentration 3 μM), and preincubated with enzyme/substrate mix for 30 min prior to initiation of the reaction by addition of ATP (1 mM final concentration) and substrate (1 μM final concentration; Carna Biosciences) diluted in assay buffer supplemented by MgCl2 (final assay concentration of 5 mM). Following 60 min incubation at RT, the reaction was terminated by addition of 60 µl/well termination buffer (Carna Biosciences) and signal determination using aCaliper EZ Reader (Perkin Elmer, UK).
The compound numbers correspond to the compound numbers in Table 1.
On to `CN1CCCC1C1(O)CCN(c2ccc(Nc3ccc(-c4cnc5cc(F)ccn45)c4c3C(=O)NC4)nc2)CC1` (stereo not shown) [I-677, 4-(7-fluoroimidazo [1,2-a]pyridin-3-yl)-7-((5-(4-hydroxy-4-(1-methylpyrrol-idin-2-yl)piperidin-1-yl)pyridin-2-yl)amino)isoin-dolin-1-one], for which the pIC50 is greater than 7.00. Then `CN1CC[C@H](c2ccc(Nc3ccc(-c4cnc5cc(F)ccn45)c4c3C(=O)NC4)nc2)C1=O` [I-336, (R)-4-(7-fluoroimidazo [1,2-a]pyridin-3-yl)-7-((5-(1-methyl-2-oxopyrrolidin-3-yl)pyridin-2-yl)amino)isoin-dolin-1-one], with greater than 7.00; and `O=C1NCc2c(-c3cnc4cc(F)ccn34)ccc(Nc3ccc(N4CCC[C@@H](N5CCOCC5)C4)cn3)c21` [I-502, (R)-4-(7-fluoroimidazo [1,2-a]pyridin-3-yl)-7-((5-(3-morpholinopip-eridin-1-yl)pyridin-2-yl)amino)isoin-dolin-1-one], with greater than 7.00.

Consider `Cn1cc(-c2ccc(Nc3ccc(N4CCC(O)CC4)cn3)c3c2CNC3=O)c2cnncc21` [I-425, 7-((5-(4-hydroxy-piperidin-1-yl)pyridin-2-yl)amino)-4-(1-methyl-1H-pyrrolo[2,3-d]pyridazin-3-yl)isoindolin-1-one], for which the pIC50 was greater than 7.00. In the case of `Cc1cnc2c(-c3ccc(Nc4ccc(N5CCN(C)CC5)cn4)c4c3CNC4=O)cnn2c1` [I-111, 7-[[5-(4-methylpiperazin-1-yl)-2-pyridyl]amino]-4-(6-methylpyrazolo[1,5-a]pyrimidin-3-yl)isoindolin-1-one], the pIC50 is greater than 7.00. As for `O=C1NCc2c(-c3cnc4ccc(C(F)(F)F)cn34)ccc(Nc3ccc(N4CCC(O)CC4)cn3)c21` [I-132], the pIC50 is less than 6.00. Take `CN1CCN(c2ccc(Nc3cnc(-c4cnc5ccccn45)c4c3C(=O)NC4)nc2)CC1` [I-56, 4-(Imidazo[1,2-a]pyridin-3-yl)-7-((5-(4-methylpiperazin-1-yl)pyridin-2-yl)amino)-2,3-dihydro-1H-pyrrolo[3,4-c]pyridin-1-one]: the negative logarithm of the IC50 (pIC50) was greater than 7.00. With `O=C1NCc2c(-c3cnc4cc(Cl)ccn34)ccc(Nc3ccc(N4CCC(O)(CN5CCOCC5)CC4)cn3)c21` [I-447, 4-(7-chloroimidazo [1,2-a]pyridin-3-yl)-7-((5-(4-hydroxy-4-(morpholino-methyl)piperidin-1-yl)pyridin-2-yl)amino)isoin-dolin-1-one], the negative-log IC50 (pIC50) was greater than 7.00. As to `CC(C)(O)[C@@H]1CCCN(c2ccc(Nc3cnc(-c4cnc5cc(F)ccn45)c4c3C(=O)NC4)nc2)C1` [I-226, (R)-4-(7-fluoroimidazo[1,2-a]pyridin-3-yl)-7-((5-(3-(2-hydroxypropan-2-yl)piperidin-1-yl)pyridin-2-yl)amino)-2,3-dihydro-1H-pyrrolo[3,4-c]pyridin-1-one], the pIC50 is 6.00 to 7.00.

As for `CN(C)Cc1nc(Nc2ccc(-c3cnc4cc(F)ccn34)c3c2C(=O)NC3)ccc1N1CCC[C@H](O)C1` [I-532, 7-[[6-[(dimethylamino)-methyl]-5-[(3S)-3-hydroxy-1-piperipyl]-2-pyridyl]amino]-4-(7-fluoroimidazo [1,2-a]pyridin-3-yl)isoindolin-1-one], the pIC50 is greater than 7.00. For `CN1CCN(CC2(O)CCN(c3ccc(Nc4ccc(-c5cnc6cc(F)ccn56)c5c4C(=O)NC5)nc3)CC2)CC1` [I-365, 4-(7-fluoroimidazo [1,2-a]pyridin-3-yl)-7-((5-(4-hydroxy-4-((4-methylpiperazin-1-yl)methyl)pip-eridin-1-yl)pyridin-2-yl)amino)isoin-dolin-1-one], the pIC50 was greater than 7.00. On to `CC(C)(O)[C@@H]1CN(c2ccc(Nc3cnc(-c4cnc5ccccn45)c4c3C(=O)NC4)nc2)CCO1` [I-485, 7-[[5-[(2S)-2-(1-hydroxy-1-methyl-ethyl)morpholin-4-yl]-2-pyridyl]amino] 4-imidazo[1,2-a]pyridin-3-yl-2,3-dihydropyrrolo [3,4-c]pyridin-1-one], for which the negative logarithm of the IC50 (pIC50) was greater than 7.00. The figure for `CN(C)C(C)(C)C1CN(c2ccc(Nc3ccc(-c4cnc5cc(F)ccn45)c4c3C(=O)NC4)nc2)CCO1` (stereo in doubt) [I-591, (S)-7-((5-(2-(2-(dimethylami-no)propan-2-yl)morpho-lino)pyridin-2-yl)amino)-4-(7-fluoroimidazo [1,2-a]pyridin-3-yl)isoindolin-l-one] is greater than 7.00; for `CC(C)(O)[C@@H]1CN(c2ccc(Nc3ccc(-c4cnc5cc(C(F)F)ccn45)c4c3C(=O)NC4)nc2)CCO1` [I-492, 4-[7-(difluoromethyl)-imidazo[1,2-a]pyridin-3-yl]-7-[[5-[(2S)-2-(1-hydroxy-1-methyl-ethyl)morpholin-4-yl]-2-pyridyl]amino]isoindolin-1-one] it is greater than 7.00.

Take `Cn1ccc2c(-c3ccc(Nc4ccc(N5CCC(O)(CN6CCOCC6)CC5)cn4)c4c3CNC4=O)ccnc21` [I-291, 7-((5-(4-hydroxy-4-(morpholino-methyl)piperi-din-1-yl)pyridin-2-yl)amino)-4-(1-methyl-1H-pyrrolo[2,3-b]pyridin-4-yl)isoindolin-1-one]: the pIC50 was greater than 7.00.

In the case of `Cc1cc2c(-c3ccc(Nc4ccc(N5CCN(C)CC5)cn4)c4c3CNC4=O)ccnc2[nH]1` [I-38, 7-[[5-(4-methylpiperazin-1-yl)-2-pyridyl]amino]-4-(2-methyl-1H-pyrrolo[2,3-b]pyridin-4-yl)isoindolin-1-one], the pIC50 was greater than 7.00. Regarding `CN1CCN(c2ccc(Nc3cnc(-c4cnc5n4CCC5)c4c3C(=O)NC4)nc2)CC1` [I-268, 4-(6,7-dihydro-5H-pyrrolo[1,2-a]imidazol-3-yl)-7-((5-(4-methylpiperazin-1-yl)pyridin-2-yl)amino)-2.3-dihydro-1H-pyrrolo[3,4-c]pyridin-1-one], the pIC50 is 6.00 to 7.00. `CC(C)(c1ccc(Nc2ccc(-c3cnc4cc(F)ccn34)c3c2C(=O)NC3)nc1)N1CCOCC1` [I-747, 4-(7-fluoroimidazo [1,2-a]pyridin-3-yl)-7-((5-(2-morpholino-propan-2-yl)pyridin-2-yl)amino)isoin-dolin-1-one]: the pIC50 was greater than 7.00.

With `C[C@@H](O)[C@@H]1CCCN(c2ccc(Nc3ccc(-c4cnc5cc(F)ccn45)c4c3C(=O)NC4)nc2)C1` (stereo in doubt) [I-357, 4-(7-fluoroimidazo [1,2-a]pyridin-3-yl)-7-((5-((S)-3-((S)-1-hydroxyethyl)piperidin-1-yl)pyridin-2-yl)amino)isoin-dolin-1-one], the pIC50 is greater than 7.00. The figure for `C[C@@H]1COc2c(-c3ccc(Nc4ccc(N5CCN(C)CC5)cn4)c4c3CNC4=O)cnn2C1` [I-261, (S)-4-(6-methyl-6,7-dihydro-5H-pyrazolo[5,1-b][l,3]oxazin-3-yl)-7-((5-(4-methylpiperazin-1-yl)pyridin-2-yl)amino)isoin-dolin-1-one] is greater than 7.00. `Cn1ccc2c(-c3ncc(Nc4ccc(N5C[C@@H]6C[C@H]5CO6)cn4)c4c3CNC4=O)ccnc21` [I-309, 7-((5-((1S,4S)-2-oxa-5-azabicyclo[2.2.1]heptan-5-yl)pyridin-2-yl)amino)-4-(1-methyl-1H-pyrrolo[2,3-b]pyridin-4-yl)-2,3-dihydro-1H-pyrrolo[3,4-c]pyridin-1-one]: the pIC50 was greater than 7.00. As for `CC(C)n1ccc2c(-c3ccc(Nc4ccc(N5CCN(C)CC5)cn4)c4c3CNC4=O)ccnc21` [I-48, 4-(1-isopropylpyrrolo [2,3-b]pyridin-4-yl)-7-[[5-(4-methylpiperazin-1-yl)-2-pyridyl]amino] isoindolin-1-one], the pIC50 is 6.00 to 7.00.

Consider `C[C@H]1C[C@H](O)CCN1c1ccc(Nc2ccc(-c3cnc4cnccn34)c3c2C(=O)NC3)nc1` [I-352, 7-((5-((2S,4R)-4-hydroxy-2-methylpiperidin-1-yl)pyridin-2-yl)amino)-4-(imidazo[1,2-a]pyrazin-3-yl)isoindolin-1-one], for which the pIC50 was greater than 7.00.

As to `O=C1NCc2c(-c3cnc4cc(F)ccn34)ccc(Nc3ccc([C@H]4CCOC4)c(CN4CCC(F)(F)C4)n3)c21` [I-717, (R)-7-((6-((3,3-difluoropyrro-lidin-1-yl)methyl)-5-(tetrahydrofuran-3-yl)pyridin-2-yl)amino)-4-(7-fluoroimidazo [1,2-a]pyridin-3-yl)isoindolin-1-one], the pIC50 is greater than 7.00.

For the compound `CO[C@@]1(CN(C)C)CCCN(c2ccc(Nc3ccc(-c4cnc5cc(F)ccn45)c4c3C(=O)NC4)nc2)C1` [I-611, (R)-7-((5-(3-((dimethylamino)-methyl)-3-methoxy-piperidin-1-yl)pyridin-2-yl)amino)-4-(7-fluoroimidazo [1,2-a]pyridin-3-yl)isoindolin-1-one], the pIC50 is greater than 7.00. Consider `O=C1NCc2c(-c3c[nH]c4ccccc34)ncc(Nc3ccc(N4CC5CCC(C4)O5)cn3)c21` [I-10, 4-(1H-indol-3-yl)-7-[[5-(8-oxa-3-azabicyclo [3.2.1]octan-3-yl)-2-pyridyl]amino]-2,3-dihydropyrrolo [3,4-c]pyridin-1-one], for which the pIC50 is less than 6.00.

For `CNC1CN(c2cccc(Nc3cnc(-c4ccnc5c4ccn5C)c4c3C(=O)NC4)n2)C1` [I-449, 7-[[6-[3-(methylamino)azetidin-1-yl]-2-pyridyl]amino]-4-(1-methylpyrrolo [2,3-b]pyridin-4-yl)-2,3-dihydropyrrolo [3,4-c]pyridin-1-one Formic acid salt], the pIC50 is greater than 7.00. As for `O=C1NCc2c(-c3cnc4cc(C(F)F)ccn34)ccc(Nc3ccc(C4(O)CCOCC4)cn3)c21` [I-608, 4-(7-(difluoromethyl)-imidazo[1,2-a]pyridin-3-yl)-7-((5-(4-hydroxytetra-hydro-2H-pyran-4-yl)pyridin-2-yl)amino)isoin-dolin-1-one], the pIC50 is greater than 7.00.

As a reminder, the pIC50 is the negative decadic logarithm of the IC50, by convention in mol/L.
